Source: US5068325A, “4,5,7,8-tetrahydro-6H-thiazolo[5,4-d]azepines, their preparation and their use as pharmaceutical compositions” (priority 1988, dated 1991)

Key:
MPTP monkeys = experiment: post-synaptic dopaminergic activity in MPTP monkeys; format: in vivo, rhesus monkey; conditions: for minimal effective dose: Primates, in Macaca mulatta, im, rhesus monkeys, i.m., read-out: minimum dose (MED) required to alleviate the Parkinson's symptoms
Text: 6. Determining the post-synaptic dopaminergic activity in MPTP monkeys (Modified Method of R. S. Burns et al., Proc. Natl. Acad. Sci. 80. 4546 (1983))
The neurotoxin 1-methyl-4-phenyl-1,2,3,6- tetrahydro-pyridine (MPTP) produces in humans and monkeys an irreversible syndrome which in its clinical, pathological, biochemical and pharmacological appearance is very similar to idiopathic Parkinson's disease (Markey et al., Nature 311, 464 (1984)). The reason for this similarity is that MPTP selectively destroys those dopaminergic nerve cells in the substantia nigra of the brain which are also lost by degenerative processes in Parkinson's disease. There is even some discussion that MPTP or an MPTP-like substance might be formed in the body and trigger Parkinson's disease (S. H. Snyder, Nature 311, 514 (1984)). Possibly because of the specific MPTP metabolism, the clinical formation of the MPTP-induced Parkinson syndrome has hitherto been detected only in humans and monkeys. The MPTP model produced in the rhesus monkey is therefore exceptionally suitable for testing the activity of post-synaptically acting dopamine agonists. For this purpose, rhesus monkeys were given MPTP in overall doses of up to about 6 mg/kg of body weight, until the following symptoms appeared: The animals were akinetic and unable to take water and food.
It is clear that with the compounds according to the invention there is no sedative effect or ataxia at a dosage which is several times the MED, which can be put down to the absence of a corresponding activity mediated by the α2- receptors.

[1] = molecular target: T1, serotonin-1A(5-HT1A) receptors (Rattus norvegicus, UniProt P19327); experiment: affinity for serotonin-1A (5-HT1A) receptors by displacement experiments with [3H]-8-OH-DPAT (rat frontal cortex); format: binding; conditions: [3H]-8-OH-DPAT; rat frontal cortex; read-out: 5-HT1A-Ki
T1 construct: The frontal cortex was dissected out; from tissue; host or cells: rat frontal cortex homogenate (Chbb:Thom strain)
T1 sequence (P19327 1-422): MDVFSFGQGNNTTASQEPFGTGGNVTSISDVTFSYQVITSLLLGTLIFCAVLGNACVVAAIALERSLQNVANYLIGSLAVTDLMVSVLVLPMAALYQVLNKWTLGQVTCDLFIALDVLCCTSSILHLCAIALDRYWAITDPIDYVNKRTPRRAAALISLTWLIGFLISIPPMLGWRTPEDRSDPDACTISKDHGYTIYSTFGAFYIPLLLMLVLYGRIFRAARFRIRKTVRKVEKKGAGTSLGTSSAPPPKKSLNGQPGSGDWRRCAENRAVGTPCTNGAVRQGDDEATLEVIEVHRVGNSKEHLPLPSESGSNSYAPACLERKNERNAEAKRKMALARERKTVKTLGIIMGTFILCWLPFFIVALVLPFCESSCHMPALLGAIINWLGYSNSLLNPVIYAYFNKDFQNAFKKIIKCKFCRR
Procedure: 3. […] (Method of S. J. Peroutka, J. Neurochem. 47, 529 (1986), modified according to H. Gozlan et al., J. Receptor Research 7. 195 (1987))
A male rat (Chbb:Thom strain weighing about 200 g) was decapitated. The brain was removed and placed in ice-cold buffer (50 mmol/1 tris-HCl plus hydrochloric acid ad pH =7.4 at ambient temperature). The frontal cortex was dissected out; its moist weight was determined. It was homogenised in 40 times its volume of buffer (Polytron, position 6, 10 seconds), then centrifuged for 20 minutes at 45,000×g in the refrigerated centrifuge. The pellet was washed in 100 times its volume of buffer and centrifuged again as described above. The resulting pellet was resuspended in 40 times its volume of buffer and pre-incubated for 10 minutes at 37° C. Sixty times the volume of buffer were added and centrifuging was carried out as above. The resulting pellet was washed with 100 times the volume of buffer and centrifuged as above. The pellet was resuspended in buffer (0.8 ml/10 mg) and briefly homogenised in the Polytron. This homogenised tissue was cooled in ice until ready for incubation.
Incubation was stopped by rapid filtering through Whatman GF/B filters; rinsing was carried out twice, each time with 5 ml of ice cold buffer (Filter Prep, Messrs. Ismatec). The radioactivity of the filters was determined by liquid scintillation measurement.
Specific binding is obtained from total binding minus non-specific binding.

dopamine D1-receptors = molecular target: T2, dopamine D1-receptors (Rattus norvegicus, UniProt P18901); experiment: affinity for dopamine D1-receptors by displacement experiments with [3H]-Sch 23390; format: binding
T2 construct: The striata were dissected out, weighed and homogenised in 25 volumes of tris buffer; from tissue; host or cells: rat striatum membranes (Chbb:Thom strain), prepared as for the D2 assay
T2 sequence (P18901 whole entry): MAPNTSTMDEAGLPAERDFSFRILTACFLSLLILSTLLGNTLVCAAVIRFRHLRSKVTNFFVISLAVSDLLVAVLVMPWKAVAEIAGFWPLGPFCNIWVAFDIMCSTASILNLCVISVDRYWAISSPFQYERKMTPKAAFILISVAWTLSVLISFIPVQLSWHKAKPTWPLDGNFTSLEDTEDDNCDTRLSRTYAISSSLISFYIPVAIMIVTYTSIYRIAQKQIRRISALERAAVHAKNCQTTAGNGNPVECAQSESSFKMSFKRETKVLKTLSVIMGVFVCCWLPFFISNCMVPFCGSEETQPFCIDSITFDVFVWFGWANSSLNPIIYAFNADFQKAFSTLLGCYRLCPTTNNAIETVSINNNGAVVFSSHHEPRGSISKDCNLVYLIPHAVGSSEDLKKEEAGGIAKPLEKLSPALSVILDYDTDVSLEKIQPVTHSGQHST
Procedure: Male rats (of the Chbb:Thom strain weighing about 200 g) were killed by a blow to the back of the neck. The brains were removed and dissected on ice. The striata were dissected out, weighed and homogenised in 25 volumes of tris buffer (50 mM tris-HCl, 1 mM EDTA, 5 mM MgCl2 and 1 mM ascorbic acid) for 30 seconds in an Ultra-Turrax at maximum speed, followed by 10 cycles in a Potter-Elvehjem at 1400 rpm. The pellet obtained after centrifuging at 50,000×g at 4° C. for 15 minutes was again taken up in 25 ml of tris buffer and centrifuged under the above conditions. The supernatant was discarded and the pellet obtained was incubated in 25 ml of tris buffer at 37° C. for 30 minutes and then centrifuged again at 50,000×g at 4° C. for 15 minutes. Finally, the pellet obtained was mixed with tris buffer to obtain a homogenate dilution of 1:500 (based on the weight of the striata).
Displacement curves were obtained from the data using the TOPFIT programming package (G. Heinzel in "Pharmacokinetics During Drug Development: Data Analysis and Evaluation Techniques", G. Bozler and J. M. van Rossum Eds., G. Fischer Verlag, Stuttgart 1982, 207).
7. Determining the affinity for dopamine D1-receptors by displacement experiments with [^3 H1-Sch 23390
The membrane preparation and data analysis were carried out as described for determining the affinity for dopamine D2 - receptors.
1 ml aliquots of the membrane preparation were incubated for 1 hour at ambient temperature with 1 ml of a solution of 0.25 nM [^3 H]-Sch 23390 (2.44 TBq/mmol, Messrs. DuPont NEN) and with increasing concentrations of the test substance (10^-11 to 10^-4 M). Incubation was ended by the addition of 5 ml of ice cold tris buffer and filtration through Whatman GF/B filters. The filters were washed twice, each time with 5 ml of ice cold buffer. The radioactivity of the filters was determined by liquid scintillation measurement in Instagel(R) (Messrs. Canberra Packard).
The non-specific binding was determined in the presence of 10^-6 M (-)-butaclamol (Research Biochemicals Inc.).

Row | Ki [1] [µM] | Ki (dopamine D1-receptors) [µM] | SMILES | also measured
1 | 4.69 | 12 | C=CCN1CCc2nc(N)sc2CC1 [Compound A, reference compound] | Duration of activity (MPTP monkeys; 0.03 mg/kg i.m. (MED)): 0.5 to 1 h; effect on MPTP-induced symptoms (MPTP monkeys; MPTP-treated rhesus monkeys): temporary cessation of this phenomenon; minimal effective dose (MPTP monkeys): 0.03 mg/kg
2 | 23 | 1.5 | Nc1nc2c(s1)CCN(CC=Cc1cccc(OCc3ccccc3)c1)CC2 [Example 4y, 2-Amino-6-(3-(3-benzyloxy-phenyl)allyl)-4,5,7,8-tetrahydro-6H-thiazolo[5,4-d]azepine] | 
3 | 1.77 | 0.92 | Nc1nc2c(s1)CCN(CC=Cc1ccccc1N1CCCCC1)CC2 [Example 11p, 2-Amino-6-(3-(2-(1-piperidino)phenyl)-2-propen-1-yl)-4,5,7,8-tetrahydro-6H-thiazolo[5,4-d]azepine] | 
4 | 1.1 | 0.18 | Nc1nc2c(s1)CCN(CC=Cc1nccc3ccccc13)CC2 [Example 7a, 2-Amino-6-(3-(1-isoquinolinyl)allyl)-4,5,7,8-tetrahydro-6H-thiazolo[5,4-d]azepine] | 
5 | 3.5 | 3 | Nc1nc2c(s1)CCN(CC=Cc1cc3ccccc3cn1)CC2 [Example 24a, 2-Amino-6-(3-(3-isoquinolinyl)allyl)-4,5,7,8-tetrahydro-6H-thiazolo[5,4-d]azepine] | 

More lines, now with the values behind:

Row | SMILES | Ki [1] [µM] | Ki (dopamine D1-receptors) [µM] | also measured
6 | Nc1nc2c(s1)CCN(Cc1ccc(Cl)cc1)CC2 [Compound B, reference compound] |  | 11 | Duration of activity (MPTP monkeys; 0.15 mg/kg i.m.): 5 h
7 | Nc1nc2c(s1)CCN(CC=Cc1cccc3ccccc13)CC2 [Example 4t, 2-Amino-6-(3-(1-naphthyl)allyl)-4,5,7,8-tetrahydro-6H-thiazolo[5,4-d]azepine] | 0.35 | 0.21 | 
8 | N#Cc1ccc(C=CCN2CCc3nc(N)sc3CC2)cc1 [Example 14b, 2-Amino-6-(3-(4-cyano-phenyl)allyl)-4,5,7,8-tetrahydro-6H-thiazolo[5,4-d]azepine] | 7.8 |  | Duration of activity (MPTP monkeys; 0.05 mg/kg i.m. (MED)): 2.0 to 5 h; Side effects (MPTP monkeys; 0.05 mg/kg i.m. (MED)): none; Duration of activity (MPTP monkeys; 0.50 mg/kg i.m.): > 5 h; minimal effective dose (MPTP monkeys): 0.05 mg/kg
